The source of these data is ChEMBL document CHEMBL1921682, “Molecular properties prediction and synthesis of novel 1,3,4-oxadiazole analogues as potent antimicrobial and antitubercular agents” (Bioorg Med Chem Lett, 2011).

In brackets after ≈: the same amount, converted by molar mass. Some results are limits rather than exact numbers.

One data set has as its system Mycobacterium tuberculosis. Put plainly: microbe, parasite or virus in culture. The following applies: H37Rv.
Description: Antimycobacterial activity against Mycobacterium tuberculosis H37Rv by agar double dilution technique
Compound `Cc1c(NCc2nnc(COc3ccccc3)o2)c(=O)n(-c2ccccc2)n1C` had an MIC90 of 12.8 µM (≈ 5 µg/mL).
On the same count and under the same terms, then `Cc1c(NCc2nnc(-c3ccncc3)o2)c(=O)n(-c2ccccc2)n1C`, with 0.78 µM (≈ 0.283 µg/mL); and `Cc1cccc(-c2nnc(CNc3c(C)n(C)n(-c4ccccc4)c3=O)o2)c1`, with above 13.3 µM.
The same measure, in the same setting: then `Cc1c(NCc2nnc(-c3ccccc3Cl)o2)c(=O)n(-c2ccccc2)n1C`, with 1.97 µM (≈ 0.78 µg/mL).
For `Cc1ccccc1-c1nnc(CNc2c(C)n(C)n(-c3ccccc3)c2=O)o1`, the MIC90 was above 13.3 µM.
The same measure, in the same setting: then `Cc1ccc(-c2nnc(CNc3c(C)n(C)n(-c4ccccc4)c3=O)o2)cc1`, with 10 µM (≈ 3.75 µg/mL); and `CC(=O)Oc1ccccc1-c1nnc(CNc2c(C)n(C)n(-c3ccccc3)c2=O)o1`, with above 12.8 µM.
On the same count and under the same terms, then `Cc1c(NCc2nnc(-c3ccc(N)cc3)o2)c(=O)n(-c2ccccc2)n1C`, with 4.15 µM (≈ 1.56 µg/mL).

The test system of a further data set is Escherichia coli. In words: Antibacterial activity against Escherichia coli NCIM 5051 by broth dilution technique. Type of data set: functional.
Settings: not given
`Cc1c(NCc2nnc(COc3ccccc3)o2)c(=O)n(-c2ccccc2)n1C` registered a minimum inhibitory concentration (MIC) of 64 µg/mL (≈ 164 µM).
On the same count and under the same terms, then `Cc1c(NCc2nnc(-c3ccncc3)o2)c(=O)n(-c2ccccc2)n1C`, with 16 µg/mL (≈ 44.2 µM); and `Cc1cccc(-c2nnc(CNc3c(C)n(C)n(-c4ccccc4)c3=O)o2)c1`, with 512 µg/mL (≈ 1360 µM); and `Cc1c(NCc2nnc(-c3ccccc3Cl)o2)c(=O)n(-c2ccccc2)n1C`, with 4 µg/mL (≈ 10.1 µM).
Still for that read-out and setting: then `Cc1ccccc1-c1nnc(CNc2c(C)n(C)n(-c3ccccc3)c2=O)o1`, with 256 µg/mL (≈ 682 µM); and `Cc1ccc(-c2nnc(CNc3c(C)n(C)n(-c4ccccc4)c3=O)o2)cc1`, with 256 µg/mL (≈ 682 µM).
Still for that read-out and setting: then `CC(=O)Oc1ccccc1-c1nnc(CNc2c(C)n(C)n(-c3ccccc3)c2=O)o1`, with 256 µg/mL (≈ 610 µM); and `Cc1c(NCc2nnc(-c3ccc(N)cc3)o2)c(=O)n(-c2ccccc2)n1C`, with 16 µg/mL (≈ 42.5 µM).

System in a further data set: not listed separately
Put plainly: Octanol-water partition coefficient, log P of the compound. Type of data set: physicochemical.
Settings: not given
`Cc1c(NCc2nnc(COc3ccccc3)o2)c(=O)n(-c2ccccc2)n1C` came in with a logP of 0.98.
`Cc1c(NCc2nnc(-c3ccncc3)o2)c(=O)n(-c2ccccc2)n1C` registered a logP of 0.8.
The same measure, in the same setting: as for `Cc1cccc(-c2nnc(CNc3c(C)n(C)n(-c4ccccc4)c3=O)o2)c1`, the figure is 2.39.
`Cc1c(NCc2nnc(-c3ccccc3Cl)o2)c(=O)n(-c2ccccc2)n1C` returned a logP of 2.72.
The same measure, in the same setting: then `Cc1ccccc1-c1nnc(CNc2c(C)n(C)n(-c3ccccc3)c2=O)o1`, with 2.38; and `Cc1ccc(-c2nnc(CNc3c(C)n(C)n(-c4ccccc4)c3=O)o2)cc1`, with 2.48.
Compound `CC(=O)Oc1ccccc1-c1nnc(CNc2c(C)n(C)n(-c3ccccc3)c2=O)o1` had a logP of 1.98.
The same measure, in the same setting: as for `Cc1c(NCc2nnc(-c3ccc(N)cc3)o2)c(=O)n(-c2ccccc2)n1C`, the figure is 1.13.

The subject of a further data set is Pseudomonas aeruginosa. In words: Antibacterial activity against Pseudomonas aeruginosa ATCC 10145 by broth dilution technique. Type of data set: functional.
Settings: not given
`Cc1c(NCc2nnc(COc3ccccc3)o2)c(=O)n(-c2ccccc2)n1C` showed a minimal inhibitory concentration (MIC) of 128 µg/mL (≈ 327 µM).
Consider `Cc1c(NCc2nnc(-c3ccncc3)o2)c(=O)n(-c2ccccc2)n1C`, for which the lowest concentration to inhibit growth (MIC) was 32 µg/mL (≈ 88.3 µM).
Still for that read-out and setting: then `Cc1cccc(-c2nnc(CNc3c(C)n(C)n(-c4ccccc4)c3=O)o2)c1`, with above 512 µg/mL.
On to `Cc1c(NCc2nnc(-c3ccccc3Cl)o2)c(=O)n(-c2ccccc2)n1C`, for which inhibition of growth (MIC) required 8 µg/mL (≈ 20.2 µM).
Same read-out and setting: as for `Cc1ccccc1-c1nnc(CNc2c(C)n(C)n(-c3ccccc3)c2=O)o1`, the figure is 512 µg/mL (≈ 1360 µM); as for `Cc1ccc(-c2nnc(CNc3c(C)n(C)n(-c4ccccc4)c3=O)o2)cc1`, 512 µg/mL (≈ 1360 µM); as for `CC(=O)Oc1ccccc1-c1nnc(CNc2c(C)n(C)n(-c3ccccc3)c2=O)o1`, 512 µg/mL (≈ 1220 µM).
Still for that read-out and setting: then `Cc1c(NCc2nnc(-c3ccc(N)cc3)o2)c(=O)n(-c2ccccc2)n1C`, with 64 µg/mL (≈ 170 µM).

In another data set the test system is Candida albicans. Put plainly: Antifungal activity against Candida albicans NCIM 3417 by agar diffusion method. Type of data set: functional.
Settings: not given
In turn, `Cc1c(NCc2nnc(COc3ccccc3)o2)c(=O)n(-c2ccccc2)n1C` displayed an MIC of 512 µg/mL (≈ 1310 µM).
The same measure, in the same setting: as for `Cc1c(NCc2nnc(-c3ccncc3)o2)c(=O)n(-c2ccccc2)n1C`, the figure is 256 µg/mL (≈ 706 µM).
Still for that read-out and setting: as for `Cc1cccc(-c2nnc(CNc3c(C)n(C)n(-c4ccccc4)c3=O)o2)c1`, the figure is 256 µg/mL (≈ 682 µM); as for `Cc1c(NCc2nnc(-c3ccccc3Cl)o2)c(=O)n(-c2ccccc2)n1C`, 256 µg/mL (≈ 647 µM); as for `Cc1ccccc1-c1nnc(CNc2c(C)n(C)n(-c3ccccc3)c2=O)o1`, 16 µg/mL (≈ 42.6 µM).
For the compound `Cc1ccc(-c2nnc(CNc3c(C)n(C)n(-c4ccccc4)c3=O)o2)cc1`, the MIC was 4 µg/mL (≈ 10.7 µM).
For `CC(=O)Oc1ccccc1-c1nnc(CNc2c(C)n(C)n(-c3ccccc3)c2=O)o1`, the MIC was found to be 512 µg/mL (≈ 1220 µM).
Still for that read-out and setting: as for `Cc1c(NCc2nnc(-c3ccc(N)cc3)o2)c(=O)n(-c2ccccc2)n1C`, the figure is 128 µg/mL (≈ 340 µM).

Another data set concerns Aspergillus niger. Put plainly: Antifungal activity against Aspergillus niger NCIM 1196 by agar diffusion method.
Settings: not given
Type of data set: functional.
In the case of `Cc1c(NCc2nnc(COc3ccccc3)o2)c(=O)n(-c2ccccc2)n1C`, the MIC was above 512 µg/mL.
The same measure, in the same setting: as for `Cc1c(NCc2nnc(-c3ccncc3)o2)c(=O)n(-c2ccccc2)n1C`, the figure is 256 µg/mL (≈ 706 µM).
Same read-out and setting: then `Cc1cccc(-c2nnc(CNc3c(C)n(C)n(-c4ccccc4)c3=O)o2)c1`, with 128 µg/mL (≈ 341 µM); and `Cc1c(NCc2nnc(-c3ccccc3Cl)o2)c(=O)n(-c2ccccc2)n1C`, with 256 µg/mL (≈ 647 µM); and `Cc1ccccc1-c1nnc(CNc2c(C)n(C)n(-c3ccccc3)c2=O)o1`, with 8 µg/mL (≈ 21.3 µM).
On the same count and under the same terms, then `Cc1ccc(-c2nnc(CNc3c(C)n(C)n(-c4ccccc4)c3=O)o2)cc1`, with 4 µg/mL (≈ 10.7 µM); and `CC(=O)Oc1ccccc1-c1nnc(CNc2c(C)n(C)n(-c3ccccc3)c2=O)o1`, with 512 µg/mL (≈ 1220 µM); and `Cc1c(NCc2nnc(-c3ccc(N)cc3)o2)c(=O)n(-c2ccccc2)n1C`, with 128 µg/mL (≈ 340 µM).

A further data set deals with Staphylococcus aureus. In words: Antibacterial activity against Staphylococcus aureus NCIM 2079 by broth dilution technique. It is filed as functional.
Settings: not given
The compound `Cc1c(NCc2nnc(COc3ccccc3)o2)c(=O)n(-c2ccccc2)n1C` yielded a minimal inhibitory concentration (MIC) of 128 µg/mL (≈ 327 µM).
On the same count and under the same terms, then `Cc1c(NCc2nnc(-c3ccncc3)o2)c(=O)n(-c2ccccc2)n1C`, with 16 µg/mL (≈ 44.2 µM); and `Cc1cccc(-c2nnc(CNc3c(C)n(C)n(-c4ccccc4)c3=O)o2)c1`, with above 512 µg/mL; and `Cc1c(NCc2nnc(-c3ccccc3Cl)o2)c(=O)n(-c2ccccc2)n1C`, with 4 µg/mL (≈ 10.1 µM).
On the same count and under the same terms, then `Cc1ccccc1-c1nnc(CNc2c(C)n(C)n(-c3ccccc3)c2=O)o1`, with 256 µg/mL (≈ 682 µM); and `Cc1ccc(-c2nnc(CNc3c(C)n(C)n(-c4ccccc4)c3=O)o2)cc1`, with 512 µg/mL (≈ 1360 µM); and `CC(=O)Oc1ccccc1-c1nnc(CNc2c(C)n(C)n(-c3ccccc3)c2=O)o1`, with 512 µg/mL (≈ 1220 µM).
On the same count and under the same terms, as for `Cc1c(NCc2nnc(-c3ccc(N)cc3)o2)c(=O)n(-c2ccccc2)n1C`, the figure is 16 µg/mL (≈ 42.5 µM).

The next data set relates to Bacillus subtilis. In words: Antibacterial activity against Bacillus subtilis NCIM 2439 by broth dilution technique.
Settings: not given
Type of data set: functional.
For `Cc1c(NCc2nnc(COc3ccccc3)o2)c(=O)n(-c2ccccc2)n1C`, the MIC amounted to 128 µg/mL (≈ 327 µM).
The same measure, in the same setting: as for `Cc1c(NCc2nnc(-c3ccncc3)o2)c(=O)n(-c2ccccc2)n1C`, the figure is 16 µg/mL (≈ 44.2 µM); as for `Cc1cccc(-c2nnc(CNc3c(C)n(C)n(-c4ccccc4)c3=O)o2)c1`, above 512 µg/mL.
The same measure, in the same setting: then `Cc1c(NCc2nnc(-c3ccccc3Cl)o2)c(=O)n(-c2ccccc2)n1C`, with 4 µg/mL (≈ 10.1 µM); and `Cc1ccccc1-c1nnc(CNc2c(C)n(C)n(-c3ccccc3)c2=O)o1`, with 256 µg/mL (≈ 682 µM); and `Cc1ccc(-c2nnc(CNc3c(C)n(C)n(-c4ccccc4)c3=O)o2)cc1`, with 512 µg/mL (≈ 1360 µM).
In turn, `CC(=O)Oc1ccccc1-c1nnc(CNc2c(C)n(C)n(-c3ccccc3)c2=O)o1` displayed an MIC of 256 µg/mL (≈ 610 µM).
In turn, `Cc1c(NCc2nnc(-c3ccc(N)cc3)o2)c(=O)n(-c2ccccc2)n1C` came in with an MIC of 32 µg/mL (≈ 85 µM).
